Test results as given in patent EP0657160A1, “Oral composition for desensitising sensitive teeth” (UNILEVER N.V., priority 1993, dated 1995).
Where a name gives a salt, the structure may show the parent alone. Read-outs that look alike come from different tables or passages of the source.

System: spinal nerve roots of the cauda equina
Assay: Compound nerve action potentials (CAPs) recorded in vitro from isolated spinal nerve roots
Set-up: species or system rats
Conditions: for IC50: K+ concentration read from the dose-response curves, read-out: 50% reduction of the CAP
Experimental: Using the method as described in J. Physiol 275, (1978), pages 177-189, experiments were carried out in vitro on spinal nerve roots of the cauda equina dissected from killed rats. Compound nerve action potentials (CAPs) were recorded from the nerves which were placed in a bath incorporating stimulating and recording electrodes and analyzed with MacLab Scope. Kreb's solutions containing various potassium ion concentrations were applied for 5 minutes to an isolated central portion of the nerve between the two sets of electrodes. With all potassium salts tested, the amplitude and area of the CAPs were reduced in a dose-dependent manner by test solutions containing 8 mM K⁺ or more. "Mean INT" in the table is the mean integrated CAP, expressed as a percentage of the control response, i.e. the response obtained with Krebs' solution containing 4mM K⁺. There were no differences in the results for CAP peak amplitudes and integrated CAPs.
Wilcoxons' Sum of Ranks test was used to compare the % of control I-CAP values obtained after 5 min exposure to the different K⁺ salts at equivalent concentrations.

[1] = [K+] 8 mM, applied for 5 minutes, mean integrated CAP as percentage of control response (Krebs' solution containing 4mM K+)
[2] = [K+] 16 mM, applied for 5 minutes, mean integrated CAP as percentage of control response (Krebs' solution containing 4mM K+)
[3] = [K+] 24 mM, applied for 5 minutes, mean integrated CAP as percentage of control response (Krebs' solution containing 4mM K+)
[4] = [K+] 32 mM, applied for 5 minutes, mean integrated CAP as percentage of control response (Krebs' solution containing 4mM K+)
[5] = [K+] 64 mM, applied for 5 minutes, mean integrated CAP as percentage of control response (Krebs' solution containing 4mM K+)

| Compound | effect on CAP compared with potassium oxalate (16-64 mM K+, p < 0.05) | activity at 8000 µM (Rattus norvegicus, 5 min, [K+] 8 mM, applied for 5 minutes, mean integrated CAP as percentage of control response (Krebs' solution containing 4mM K+), read-out: mean INT.(%)) | activity at 16000 µM (Rattus norvegicus, 5 min, [K+] 16 mM, applied for 5 minutes, mean integrated CAP as percentage of control response (Krebs' solution containing 4mM K+), read-out: mean INT.(%)) | activity at 24000 µM (Rattus norvegicus, 5 min, [K+] 24 mM, applied for 5 minutes, mean integrated CAP as percentage of control response (Krebs' solution containing 4mM K+), read-out: mean INT.(%)) | activity at 32000 µM (Rattus norvegicus, 5 min, [K+] 32 mM, applied for 5 minutes, mean integrated CAP as percentage of control response (Krebs' solution containing 4mM K+), read-out: mean INT.(%)) | activity at 64000 µM (Rattus norvegicus, 5 min, [K+] 64 mM, applied for 5 minutes, mean integrated CAP as percentage of control response (Krebs' solution containing 4mM K+), read-out: mean INT.(%)) | IC50 (Rattus norvegicus) | IC50 | mean INT.(%) [1] | mean INT.(%) [2] | mean INT.(%) [3] | mean INT.(%) [4] | mean INT.(%) [5] |
| --- | --- | --- | --- | --- | --- | --- | --- | --- | --- | --- | --- | --- | --- |
| O=C(O)C(O)C(O)C(=O)O (stereo not shown) [K₂Tartrate, dipotassium tartrate] | significantly greater | 83% | 15% | 2% | 1% | 1% | 11.6 mM | – | – | – | – | – | – |
| O=[N+]([O-])[O-].[K+] [KNO₃, potassium nitrate] | – | – | – | – | – | – | – | 17.4 mM | 91% | 54% | 17% | 2% | 0% |
| potassium oxalate [K₂Oxalate] | – | – | – | – | – | – | – | 14.3 mM | 84% | 42% | 11% | 3% | 1% |
| [Cl-].[K+] [KCl, potassium chloride] | – | – | – | – | – | – | – | 17.8 mM | 98% | 59% | 13% | 1% | 0% |
